Assay: Clinical trial ERC-205: DHEA 50 mg daily versus placebo on hot flushes in postmenopausal women (Example 10)
Assay type: in vivo
Conditions: 50 mg, strata 50 to 70 hot flushes per week at screening
Description: Postmenopausal women experiencing moderate or severe hot flushes per week (as determined by a two week diary) were randomized to receive a daily dose of either placebo or 50 mg DHEA. Fifty evaluable participants (25 patients per arm) were treated for four months with a daily assessment of hot flushes recorded in a diary completed by each participant.
Postmenopausal women aged 40 to 70 years with moderate or severe hot flushes per week, as confirmed by a two-week screening hot flush diary were enrolled after signing informed consent. The protocol was approved by the Institutional Review Board (IRB) of Le Centre Hospitalier de l'Université Laval and by Health Canada.
The primary endpoint was the change from Baseline in the weekly frequency of moderate to severe hot flushes at Week 16, after four months of treatment. The objectives also included the change from Baseline in the weekly frequency of all hot flushes and the change from Baseline in the weekly weighted severity score.
The response endpoint is the patient's paper diary which was filled in daily to specify the number and type of hot flushes as follows:
The hot flush diary began as a Screening diary for two weeks prior to randomization whereby patients had to complete the diary daily, recording the number and severity of hot flushes. The patients had to record an average of 50 or more moderate or severe hot flushes per week over the two-week period to be eligible (i.e., at least 100 hot flushes documented on the two week Screening diary).
Once randomized, the patient completed eight, two-week hot flush diaries upon beginning study medication. The diaries had to be filled out on a daily basis. The first diary was completed over the first two weeks and be returned on the two week visit. The second two-week diary was completed over the next two weeks of the first four week treatment period and was returned at the four week visit. At 4, 8, 12 and 16 week visits, two two-week diaries for hot flushes were collected.

[1] = Screening (mean of 2 w), baseline

## C[C@]12CC[C@H](O)CC1=CC[C@@H]1[C@@H]2CC[C@]2(C)C(=O)CC[C@@H]12 [DHEA, dehydroepiandrosterone]
[1]
  NUMBER OF ALL HOT FLUSHES PER WEEK (MEAN): 63.7
  NUMBER OF MODERATE TO SEVERE HOT FLUSHES PER WEEK (MEAN): 56.7
  WEIGHTED SEVERITY SCORE OF HOT FLUSHES PER WEEK (MEAN): 144.3
Week 1
  NUMBER OF ALL HOT FLUSHES PER WEEK (MEAN): 60.8
  NUMBER OF MODERATE TO SEVERE HOT FLUSHES PER WEEK (MEAN): 54.2
  WEIGHTED SEVERITY SCORE OF HOT FLUSHES PER WEEK (MEAN): 141.0
Week 2
  NUMBER OF ALL HOT FLUSHES PER WEEK (MEAN): 55.3
  NUMBER OF MODERATE TO SEVERE HOT FLUSHES PER WEEK (MEAN): 49.0
  WEIGHTED SEVERITY SCORE OF HOT FLUSHES PER WEEK (MEAN): 127.1
Week 3
  NUMBER OF ALL HOT FLUSHES PER WEEK (MEAN): 52.3
  NUMBER OF MODERATE TO SEVERE HOT FLUSHES PER WEEK (MEAN): 46.5
  WEIGHTED SEVERITY SCORE OF HOT FLUSHES PER WEEK (MEAN): 118.9
Week 4
  NUMBER OF ALL HOT FLUSHES PER WEEK (MEAN): 49.4
  NUMBER OF MODERATE TO SEVERE HOT FLUSHES PER WEEK (MEAN): 44.0
  WEIGHTED SEVERITY SCORE OF HOT FLUSHES PER WEEK (MEAN): 111.6
Week 5
  NUMBER OF ALL HOT FLUSHES PER WEEK (MEAN): 42.7
  NUMBER OF MODERATE TO SEVERE HOT FLUSHES PER WEEK (MEAN): 38.3
  WEIGHTED SEVERITY SCORE OF HOT FLUSHES PER WEEK (MEAN): 97.8
Week 6
  NUMBER OF ALL HOT FLUSHES PER WEEK (MEAN): 43.7
  NUMBER OF MODERATE TO SEVERE HOT FLUSHES PER WEEK (MEAN): 39.8
  WEIGHTED SEVERITY SCORE OF HOT FLUSHES PER WEEK (MEAN): 99.0
Week 7
  NUMBER OF ALL HOT FLUSHES PER WEEK (MEAN): 39.2
  NUMBER OF MODERATE TO SEVERE HOT FLUSHES PER WEEK (MEAN): 34.7
  WEIGHTED SEVERITY SCORE OF HOT FLUSHES PER WEEK (MEAN): 88.3
Week 8
  NUMBER OF ALL HOT FLUSHES PER WEEK (MEAN): 41.8
  NUMBER OF MODERATE TO SEVERE HOT FLUSHES PER WEEK (MEAN): 38.1
  WEIGHTED SEVERITY SCORE OF HOT FLUSHES PER WEEK (MEAN): 95.8
Week 9
  NUMBER OF ALL HOT FLUSHES PER WEEK (MEAN): 42.4
  NUMBER OF MODERATE TO SEVERE HOT FLUSHES PER WEEK (MEAN): 38.5
  WEIGHTED SEVERITY SCORE OF HOT FLUSHES PER WEEK (MEAN): 96.0
Week 10
  NUMBER OF ALL HOT FLUSHES PER WEEK (MEAN): 40.5
  NUMBER OF MODERATE TO SEVERE HOT FLUSHES PER WEEK (MEAN): 36.6
  WEIGHTED SEVERITY SCORE OF HOT FLUSHES PER WEEK (MEAN): 92.7
Week 11
  NUMBER OF ALL HOT FLUSHES PER WEEK (MEAN): 39.5
  NUMBER OF MODERATE TO SEVERE HOT FLUSHES PER WEEK (MEAN): 35.6
  WEIGHTED SEVERITY SCORE OF HOT FLUSHES PER WEEK (MEAN): 89.8
Week 12
  NUMBER OF ALL HOT FLUSHES PER WEEK (MEAN): 39.7
  NUMBER OF MODERATE TO SEVERE HOT FLUSHES PER WEEK (MEAN): 35.8
  WEIGHTED SEVERITY SCORE OF HOT FLUSHES PER WEEK (MEAN): 88.5
Week 13
  NUMBER OF ALL HOT FLUSHES PER WEEK (MEAN): 36.2
  NUMBER OF MODERATE TO SEVERE HOT FLUSHES PER WEEK (MEAN): 32.8
  WEIGHTED SEVERITY SCORE OF HOT FLUSHES PER WEEK (MEAN): 81.4
Week 14
  NUMBER OF ALL HOT FLUSHES PER WEEK (MEAN): 37.8
  NUMBER OF MODERATE TO SEVERE HOT FLUSHES PER WEEK (MEAN): 34.2
  WEIGHTED SEVERITY SCORE OF HOT FLUSHES PER WEEK (MEAN): 87.0
Week 15
  NUMBER OF ALL HOT FLUSHES PER WEEK (MEAN): 36.5
  NUMBER OF MODERATE TO SEVERE HOT FLUSHES PER WEEK (MEAN): 33.7

Source: patent publication US11452731B2, “Method of treating and preventing loss of cognition” (ENDORECHERCHE, INC., priority 2009, dated 2022)
